The text below walks through data of patent publication EP4477653A1 (Perha Pharmaceuticals, priority 2023, dated 2024).

This experiment addresses T1, human recombinant A3AR (expressed in HEK-293 cells) (Homo sapiens, UniProt P0DMS8).
T1 construct: host or cells: HEK-293 cells
T1 sequence (P0DMS8 1-318): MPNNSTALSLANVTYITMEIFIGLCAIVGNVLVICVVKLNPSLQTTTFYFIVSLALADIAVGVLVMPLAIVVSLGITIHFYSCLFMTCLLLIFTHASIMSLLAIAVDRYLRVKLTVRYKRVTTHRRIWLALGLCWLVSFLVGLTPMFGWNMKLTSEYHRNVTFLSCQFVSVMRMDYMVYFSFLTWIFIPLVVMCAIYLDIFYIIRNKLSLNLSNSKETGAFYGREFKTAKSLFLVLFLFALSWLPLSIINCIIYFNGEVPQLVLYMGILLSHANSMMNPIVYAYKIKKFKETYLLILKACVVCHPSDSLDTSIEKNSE
The experiment is described as follows: Adenosine receptors antagonism assay (Eurofins), [125I]-AB-MECA radioligand competition. The experiment is classed as binding. Background: Loss of bound radioactivity is the signal in a displacement assay; it reports binding, not function.

[1] abbreviates: [125I]-AB-MECA 0.15 nM, r.t., 120 min; IC50 from dose-response curves; read-out: Potency Class A3AR.
[2] abbreviates: read-out: Potency Class A3AR; [125I]-AB-MECA 0.15 nM, r.t., 120 min; IC50 from dose-response curves.

Read-outs that look alike come from different tables or passages of the source. Bounds are passed on as bounds.

Experimental: Assays were carried out at r.t. for 120 min. Compounds were initially tested at three concentrations (0.01, 0.1, 1 µM). […] IC50 values, which is the concentration causing a half-maximal inhibition of control specific binding, and Hill coefficients (nH) were determined by non-linear regression analysis of the competition curves generated with mean replicate values using Hill equation curve fitting. The inhibition constants (Ki) were calculated using the Cheng Prusoff equation.

Consider `CCC(CC)Nc1cc(Nc2ncccc2OC)c2nnc(C(C)C)n2n1` [compound 157, 3-isopropyl-N8-(3-methoxypyridin-2-yl)-N6-(pentan-3-yl)-[1,2,4]triazolo[4,3-b]pyridazine-6,8-diamine], for which the IC50 under setting [1] was in the range of 0.01 to 0.1 µM.
As to `CCC(CC)Nc1cc(Nc2cccnc2OC)c2nnc(C(C)C)n2n1` [compound 158, 3-isopropyl-N8-(2-methoxypyridin-3-yl)-N6-(pentan-3-yl)-[1,2,4]triazolo[4,3-b]pyridazine-6,8-diamine], the IC50 under setting [1] was less than 0.001 µM.
Still for that read-out and setting: next, `CCC(CC)Nc1cc(Nc2ccc(OC)nc2)c2nnc(C(C)C)n2n1` [compound 159, 3-isopropyl-N8-(6-methoxypyridin-3-yl)-N6-(pentan-3-yl)-[1,2,4]triazolo[4,3-b]pyridazine-6,8-diamine]: less than 0.001 µM.
The same measure, in the same setting: next, `CCC(CC)Nc1cc(Nc2cncc(OC)c2)c2nnc(C(C)C)n2n1` [compound 160, 3-isopropyl-N8-(5-methoxypyridin-3-yl)-N6-(pentan-3-yl)-[1,2,4]triazolo[4,3-b]pyridazine-6,8-diamine]: 0.001 to 0.01 µM; `CCC(CC)Nc1cc(Nc2cc(OC)cnn2)c2nnc(C(C)C)n2n1` [compound 162, 3-isopropyl-N8-(5-methoxypyridazin-3-yl)-N6-(pentan-3-yl)-[1,2,4]triazolo[4,3-b]pyridazine-6,8-diamine]: less than 0.001 µM.
On the same count and under the same terms, next, `CC[C@H](CO)Nc1cc(Nc2ccccn2)c2nnc(C(C)C)n2n1` [compound 163, (2R)-2-[[3-isopropyl-8-(2-pyridylamino)-[1,2,4]triazolo[4,3-b]pyridazin-6-yl]amino]butan-1-ol]: 0.01 to 0.1 µM.
Take `CCC(CC)CNc1cc(NCCc2ccccn2)c2nnc(C(C)C)n2n1` [compound 164, N6-(2-ethylbutyl)-3-isopropyl-N8-[2-(2-pyridyl)ethyl]-[1,2,4]triazolo[4,3-b]pyridazine-6,8-diamine]: the IC50 under setting [1] was less than 0.001 µM.
On the same count and under the same terms, next, `CC(C)c1nnc2c(NCCc3ccccn3)cc(NC3CCCC3)nn12` [compound 165, N6-cyclopentyl-3-isopropyl-N8-[2-(2-pyridyl)ethyl]-[1,2,4]triazolo[4,3-b]pyridazine-6,8-diamine]: 0.001 to 0.01 µM.
As to `CCC(CC)CNc1cc(NCCc2cccnc2)c2nnc(C(C)C)n2n1` [compound 166, N6-(2-ethylbutyl)-3-isopropyl-N8-[2-(3-pyridyl)ethyl]-[1,2,4]triazolo[4,3-b]pyridazine-6,8-diamine], the IC50 under setting [1] was 0.001 to 0.01 µM.
Still for that read-out and setting: with `CCC(CC)CNc1cc(NCC(CC)CC)c2nnc(C(C)C)n2n1` [compound 167, N6,N8-bis(2-ethylbutyl)-3-isopropyl-[1,2,4]triazolo[4,3-b]pyridazine-6,8-diamine] the figure was 0.001 to 0.01 µM.
For the compound `CCC(CC)Nc1cc(NC(=O)Cc2cccnc2)c2nnc(C(C)C)n2n1` [compound 168, N-[6-(1-ethylpropylamino)-3-isopropyl-[1.2.4]triazolo[4,3-b]pyridazin-8-yl]-2-(3-pyridyl)acetamide], the IC50 under setting [2] was less than 0.001 µM.
Same read-out and setting: with `CC[C@H](CO)Nc1cc(NCc2ccccn2)c2nnc(C(C)C)n2n1` [compound 169] the figure was 0.01 to 0.1 µM.
Take `CCC(CC)Nc1cc(NCCCc2ccccc2)c2nnc(C(C)C)n2n1` [compound 170, N6-(1-ethylpropyl)-3-isopropyl-N8-(3-phenylpropyl)-[1,2,4]triazolo[4,3-b]pyridazine-6,8-diamine]: the IC50 under setting [1] lay within 0.001 to 0.01 µM.
The same measure, in the same setting: next, `CCC(CC)Nc1cc(Nc2ccccc2)c2nnc(C3CC3)n2n1` [compound 171, 3-cyclopropyl-N6-(1-ethylpropyl)-N8-phenyl-[1,2,4]triazolo[4,3-b]pyridazine-6,8-diamine]: less than 0.001 µM; `CCC(CC)Nc1cc(Nc2ccccn2)c2nnc(C3CC3)n2n1` [compound 172, 3-cyclopropyl-N6-(1-ethylpropyl)-N8-(2-pyridyl)-[1,2,4]triazolo[4,3-b]pyridazine-6,8-diamine]: less than 0.001 µM; `CCC(CC)Nc1cc(Nc2cccnc2)c2nnc(C3CC3)n2n1` [compound 173, 3-cyclopropyl-N6-(1-ethylpropyl)-N8-(3-pyridyl)-[1,2,4]triazolo[4,3-b]pyridazine-6,8-diamine]: less than 0.001 µM.
On the same count and under the same terms, next, `CCC(CC)Nc1cc(Nc2ccncc2)c2nnc(C3CC3)n2n1` [compound 174, 3-cyclopropyl-N6-(1-ethylpropyl)-N8-(4-pyridyl)-[1,2,4]triazolo[4,3-b]pyridazine-6,8-diamine]: less than 0.001 µM.
Consider `CCC(CC)Nc1cc(Nc2ccnnc2)c2nnc(C3CC3)n2n1` [compound 176, 3-cyclopropyl-N6-(pentan-3-yl)-N8-(pyridazin-4-yl)-[1,2,4]triazolo[4,3-b]pyridazine-6,8-diamine], for which the IC50 under setting [1] fell in the range of 0.001 to 0.01 µM.
For the compound `CCC(CC)Nc1cc(Nc2ccncn2)c2nnc(C3CC3)n2n1` [compound 177, 3-cyclopropyl-N6-(pentan-3-yl)-N8-(pyrimidin-4-yl)-[1,2,4]triazolo[4,3-b]pyridazine-6,8-diamine], under setting [1], the IC50 is less than 0.001 µM.
Consider `CCC(CC)Nc1cc(Nc2cncnc2)c2nnc(C3CC3)n2n1` [compound 178, 3-cyclopropyl-N6-(1-ethylpropyl)-N8-pyrimidin-5-yl-[1,2,4]triazolo[4,3-b]pyridazine-6,8-diamine], for which the IC50 under setting [1] is less than 0.001 µM.
Same read-out and setting: next, `CCC(CC)Nc1cc(Nc2ncccn2)c2nnc(C3CC3)n2n1` [compound 179, 3-cyclopropyl-N6-(pentan-3-yl)-N8-(pyrimidin-2-yl)-[1,2,4]triazolo[4,3-b]pyridazine-6,8-diamine]: 0.01 to 0.1 µM; `CCC(CC)Nc1cc(Nc2cnccn2)c2nnc(C3CC3)n2n1` [compound 180, 3-cyclopropyl-N6-(pentan-3-yl)-N8-(pyrazin-2-yl)-[1,2,4]triazolo[4,3-b]pyridazine-6,8-diamine]: less than 0.001 µM; `CC[C@H](CO)Nc1cc(Nc2cccnn2)c2nnc(C3CC3)n2n1` [compound 181, (R)-2-((3-cyclopropyl-8-(pyridazin-3-ylamino)-[1,2,4]triazolo[4,3-b]pyridazin-6-yl)amino)butan-1-ol]: less than 0.001 µM.
Regarding `CC[C@@H](CO)Nc1cc(Nc2cccnn2)c2nnc(C3CC3)n2n1` [compound 182, (S)-2-((3-cyclopropyl-8-(pyridazin-3-ylamino)-[1,2,4]triazolo[4,3-b]pyridazin-6-yl)amino)butan-1-ol], under setting [1], the IC50 was less than 0.001 µM.
On to `CCC(CC)Nc1cc(Nc2cccc(OC)n2)c2nnc(C3CC3)n2n1` [compound 183, 3-cyclopropyl-N8-(6-methoxypyridin-2-yl)-N6-(pentan-3-yl)-[1,2,4]triazolo[4,3-b]pyridazine-6,8-diamine], for which the IC50 under setting [1] is less than 0.001 µM.
As to `CCC(CC)Nc1cc(Nc2cccnc2OC)c2nnc(C3CC3)n2n1` [compound 184, 3-cyclopropyl-N8-(2-methoxypyridin-3-yl)-N6-(pentan-3-yl)-[1,2,4]triazolo[4,3-b]pyridazine-6,8-diamine], under setting [1], the IC50 fell in the range of 0.01 to 0.1 µM.
The same measure, in the same setting: next, `CC[C@H](CO)Nc1cc(NCCc2ccccn2)c2nnc(C3CC3)n2n1` [compound 185, (2R)-2-[[3-cyclopropyl-8-[2-(2-pyridyl)ethylamino]-[1,2,4]triazolo[4,3-b]pyridazin-6-yl]amino]butan-1-ol]: 0.01 to 0.1 µM; `c1ccc(CNc2cc(NCc3ccccn3)c3nnc(C4CC4)n3n2)cc1` [compound 186, N6-benzyl-3-cyclopropyl-N8-(pyridin-2-ylmethyl)-[1,2,4]triazolo[4,3-b]pyridazine-6,8-diamine]: 0.001 to 0.01 µM.
Same read-out and setting: next, `COc1ccc(CNc2cc(NCc3ccccn3)c3nnc(C4CC4)n3n2)cc1` [compound 187, 3-cyclopropyl-N6-(4-methoxybenzyl)-N8-(pyridin-2-ylmethyl)-[1,2,4]triazolo[4,3-b]pyridazine-6,8-diamine]: 0.001 to 0.01 µM.
Still for that read-out and setting: next, `COc1ccc(CN(C)c2cc(NCc3ccccn3)c3nnc(C4CC4)n3n2)cc1` [compound 188, 3-cyclopropyl-N6-(4-methoxybenzyl)-N6-methyl-N8-(pyridin-2-ylmethyl)-[1,2,4]triazolo[4,3-b]pyridazine-6,8-diamine]: 0.1 to 1 µM.
For the compound `CCNc1cc(NCc2ccccn2)c2nnc(C3CC3)n2n1` [compound 189, 3-cyclopropyl-N6-ethyl-N8-(2-pyridylmethyl)-[1,2,4]triazolo[4,3-b]pyridazine-6,8-diamine], the IC50 under setting [1] was 0.01 to 0.1 µM.
The same measure, in the same setting: with `CCCNc1cc(NCc2ccccn2)c2nnc(C3CC3)n2n1` [compound 190, 3-cyclopropyl-N6-propyl-N8-(pyridin-2-ylmethyl)-[1,2,4]triazolo[4,3-b]pyridazine-6,8-diamine] the figure was 0.01 to 0.1 µM.
The same measure, in the same setting: next, `CCCCNc1cc(NCc2ccccn2)c2nnc(C3CC3)n2n1` [compound 191, N6-butyl-3-cyclopropyl-N8-(pyridin-2-ylmethyl)-[1,2,4]triazolo[4,3-b]pyridazine-6,8-diamine]: 0.001 to 0.01 µM; `CC(C)Nc1cc(NCc2ccccn2)c2nnc(C3CC3)n2n1` [compound 192, 3-cyclopropyl-N6-isopropyl-N8-(pyridin-2-ylmethyl)-[1,2,4]triazolo[4,3-b]pyridazine-6,8-diamine]: 0.001 to 0.01 µM.
With `CC(C)CNc1cc(NCc2ccccn2)c2nnc(C3CC3)n2n1` [compound 194, 3-cyclopropyl-N6-isobutyl-N8-(pyridin-2-ylmethyl)-[1,2,4]triazolo[4,3-b]pyridazine-6,8-diamine], the IC50 under setting [1] is 0.01 to 0.1 µM.
The same measure, in the same setting: with `CC(C)(C)Nc1cc(NCc2ccccn2)c2nnc(C3CC3)n2n1` [compound 195, N6-(tert-butyl)-3-cyclopropyl-N8-(pyridin-2-ylmethyl)-[1,2,4]triazolo[4,3-b]pyridazine-6,8-diamine] the figure was 0.001 to 0.01 µM.
